Measurements: patent US7507729B2, “Substituted imidazo-[1,5-a][1,2,4]triazolo[1,5-d][1,4] benzodiazepine derivatives” (priority 2005, dated 2009)
pKi: −log10 of the molar value. Structures can show the parent of a compound that is named as a salt. Where two headings read alike, the source gives them in different places.

Columns and labels:
[1] = target: T1, GABA A receptor α1β3γ2 (hα1) (Homo sapiens, UniProt P14867+P18507); assay: [3H]flumazenil competition binding, membranes of HEK293 cells expressing human GABA A α1β3γ2; details: for Ki: [3H]flumazenil 1 nM, 1 hour at 4° C., means of two determinations, read-out: Ki[nM] hα1
T1 construct: expressed in transfected cells; host or cells: HEK293, transiently transfected; membranes
Experimental: (§1) The affinity of compounds at GABA A receptor subtypes was measured by competition for [^3H]flumazenil (85 Ci/mmol; Roche) binding to HEK293 cells expressing rat (stably transfected) or human (transiently transfected) receptors of composition α1β3γ2, α2β3γ2, α3β3γ2 and α5β3γ2.
(§2) Cell pellets were suspended in Krebs-tris buffer (4.8 mM KCl, 1.2 mM CaCl2, 1.2 mM MgCl2, 120 mM NaCl, 15 mM Tris; pH 7.5; binding assay buffer), homogenized by polytron for ca. 20 sec on ice and centrifuged for 60 min at 4° C. (50000 g; Sorvall, rotor: SM24=20000 rpm). The cell pellets were resuspended in Krebs-tris buffer and homogenized by polytron for ca. 15 sec on ice. Protein was measured (Bradford method, Bio-Rad) and aliquots of 1 mL were prepared and stored at −80° C.
(§3) Radioligand binding assays were carried out in a volume of 200 μL (96-well plates) which contained 100 μL of cell membranes, [^3H]flumazenil at a concentration of 1 nM for α1, α2, α3 subunits and 0.5 nM for α5 subunits and the test compound in the range of 10^−10-3×10^−6 M.
(§4) Nonspecific binding was defined by 10^−5 M diazepam and typically represented less than 5% of the total binding. Assays were incubated to equilibrium for 1 hour at 4° C. and harvested onto GF/C uni-filters (Packard) by filtration using a Packard harvester and washing with ice-cold wash buffer (50 mM Tris; pH 7.5). After drying, filter-retained radioactivity was detected by liquid scintillation counting. Ki values were calculated using Excel-Fit (Microsoft) and are the means of two determinations.

[2] = target: T2, GABA A receptor α5β3γ2 (hα5) (Homo sapiens, UniProt P18507+P31644); assay: [3H]flumazenil competition binding, membranes of HEK293 cells expressing human GABA A α5β3γ2; details: for Ki: [3H]flumazenil 0.5 nM, 1 hour at 4° C., means of two determinations, read-out: Ki[nM] hα5
T2 construct: expressed in transfected cells; host or cells: HEK293, transiently transfected; membranes
Experimental: as §1, §2, §3, §4

Cc1ncn2c1Cn1nc(Cc3ccccn3)nc1-c1ccccc1-2 [Example 261, 10-Methyl-6-(pyridine-2-ylmethyl)-9H-imidazo[1,5-a][1,2,4]triazolo[1,5-d][1,4]benzodiazepine]
pKi [1]: 7.58
Ki [2]: 0.7 nM

Cc1ncn2c1Cn1nc(Cc3cccnc3)nc1-c1ccccc1-2 [Example 265, 10-Methyl-6-(pyridine-3-ylmethyl)-9H-imidazo[1,5-a][1,2,4]triazolo[1,5-d][1,4]benzodiazepine]
pKi [1]: 7.41
Ki [2]: 0.62 nM

Cc1ncn2c1Cn1nc(Cc3ccncc3)nc1-c1ccccc1-2 [Example 267, 10-Methyl-6-(pyridine-4-ylmethyl)-9H-imidazo[1,5-a][1,2,4]triazolo[1,5-d][1,4]benzodiazepine]
pKi [1]: 7.69
Ki [2]: 0.25 nM

Cc1ncn2c1Cn1nc(Cn3ccnc3)nc1-c1ccccc1-2 [Example 275, 6-(Imidazol-1-ylmethyl)-10-methyl-9H-imidazo[1,5-a][1,2,4]triazolo[1,5-d][1,4]benzodiazepine hydrochloride (1:1)]
pKi [1]: 7.47
Ki [2]: 0.6 nM

CN1CCN(Cc2nc3n(n2)Cc2c(Cl)ncn2-c2ccc(Br)cc2-3)C1=O [Example 300, 3-Bromo-10-chloro-6-(3-methyl-2-oxo-imidazolidin-1-ylmethyl)-9H-imidazo[1,5-a][1,2,4]triazolo[1,5-d][1,4]benzodiazepine]
pKi [1]: 7.21
Ki [2]: 0.7 nM

O=C1NCCN1Cc1nc2n(n1)Cc1c(Cl)ncn1-c1ccc(Br)cc1-2 [Example 301, 3-Bromo-10-chloro-6-(2-oxo-imidazolidin-1-ylmethyl)-9H-imidazo[1,5-a][1,2,4]triazolo[1,5-d][1,4]benzodiazepine]
Ki [1]: 50.5 nM
Ki [2]: 0.7 nM

O=C1CSC(=O)N1Cc1nc2n(n1)Cc1c(Cl)ncn1-c1ccc(Br)cc1-2 [Example 309, 3-Bromo-10-chloro-6-(2,4-dioxo-thiazolidin-3-ylmethyl)-9H-imidazo[1,5-a][1,2,4]triazolo[1,5-d][1,4]benzodiazepine]
pKi [1]: 7.26
Ki [2]: 0.5 nM

O=C1CCC(=O)N1Cc1nc2n(n1)Cc1c(Cl)ncn1-c1ccc(Br)cc1-2 [Example 310, 3-Bromo-10-chloro-6-(2,5-dioxo-pyrrolidin-1-ylmethyl)-9H-imidazo[1,5-a][1,2,4]triazolo[1,5-d][1,4]benzodiazepine]
Ki [1]: 69.7 nM
Ki [2]: 0.7 nM

O=C1SCCN1Cc1nc2n(n1)Cc1c(Cl)ncn1-c1ccc(Br)cc1-2 [Example 312, 3-Bromo-10-chloro-6-(2-oxo-thiazolidin-3-ylmethyl)-9H-imidazo[1,5-a][1,2,4]triazolo[1,5-d][1,4]benzodiazepine]
pKi [1]: 7.22
Ki [2]: 0.5 nM

C[C@H]1CN(Cc2nc3n(n2)Cc2c(Cl)ncn2-c2ccc(Br)cc2-3)C(=O)O1 [Example 314, 3-Bromo-10-chloro-6-((5S)-5-methyl-2-oxo-oxazolidin-3-ylmethyl)-9H-imidazo[1,5-a][1,2,4]triazolo[1,5-d][1,4]benzodiazepine]
pKi [1]: 7.49
Ki [2]: 0.7 nM

O=C1OCCN1Cc1nc2n(n1)Cc1c(Cl)ncn1-c1ccc(Cl)cc1-2 [Example 316, 3,10-Dichloro-6-(2-oxo-oxazolidin-3-ylmethyl)-9H-imidazo[1,5-a][1,2,4]triazolo[1,5-d][1,4]benzodiazepine]
Ki [1]: 116 nM
pKi [2]: 9.05

Cc1ncn2c1Cn1nc(Cn3ncccc3=O)nc1-c1cc(Br)ccc1-2 [Example 330, 3-Bromo-10-methyl-6-(6-oxo-6H-pyridazin-1-ylmethyl)-9H-imidazo[1,5-a][1,2,4]triazolo[1,5-d][1,4]benzodiazepine hydrochloride (1:1)]
Ki [1]: 134 nM
pKi [2]: 9.15

Cc1noc(Cc2nc3n(n2)Cc2c(C)ncn2-c2ccc(Br)cc2-3)n1 [Example 349, 3-Bromo-10-methyl-6-(3-methyl-[1,2,4]oxadiazol-5-ylmethyl)-9H-imidazo[1,5-a][1,2,4]triazolo[1,5-d][1,4]benzodiazepine]
Ki [1]: 469 nM
pKi [2]: 9.05

Cc1ncn2c1Cn1nc(Cn3ccccc3=O)nc1-c1ccccc1-2 [Example 378, 10-Methyl-6-(2-oxo-2H-pyridin-1-ylmethyl)-9H-imidazo[1,5-a][1,2,4]triazolo[1,5-d][1,4]benzodiazepine]
pKi [1]: 7.38
Ki [2]: 0.6 nM

Ethyl 3-bromo-6-methoxymethyl-9H-imidazo[1,5-a][1,2,4]triazolo[1,5-d][1,4]benzodiazepine-10-carboxylate [Example 38]
Ki [1]: 6.9 nM
Ki [2]: 0.4 nM
